Source: patent US20240343728A1, “COMPOUNDS THAT INHIBIT PI3K ISOFORM ALPHA AND METHODS FOR TREATING CANCER” (Scorpion Therapeutics, Inc., priority 2021, published 2024)

test system: T47D pAKT; assay: Homogenous Time-Resolved Fluorescence (HTRF) Assay pAKT-T47D; assay type: cell-based; details: Homo sapiens; T47D.1 cell line, PI3Kα H1047R mutation present, HTRF detection pAKT (S473), timepoint 1 hour
Procedure: Homogenous Time-Resolved Fluorescence (HTRF) Assay—pAKT-T47D
Compounds were assayed using homogeneous time-resolved fluorescence (HTRF).
Gibco RPMI 1640 Medium, no phenol red; Gibco RPMI 1640 Medium; Gibco Trypsin-EDTA (0.5%), no phenol red; Gibco DPBS; Trypan blue solution 0.4% (Corning); Avantor Seradigm Premium Grade Fetal Bovine Serum (FBS); Greiner 784080-384 well TC treated white plates; pAKT (Ser473) HTRF; Gibco Insulin, human recombinant, zinc solution; Gibco Recovery Cell Culture Freezing Medium; Countess II FL Automated Cell Counter (ThermoFisher); Countess II Slides (ThermoFisher); Microscope; and PHERAstar FSX Microplate Reader (BMG LABTECH, Inc.).
The scinamic cell line ID was T47D.1, the HTRF detection was pAKT (S473), a PI3Kα H1047R mutation was present, the seeding density was 5000, the timepoint was 1 hour, and the medium used was RPMI+10% FBS (no phenol red)+0.2 units/ml bovine insulin.
The procedure was as follows: • 1. Prepared ARP: • a. Stamped 12.5 nL from 10 mM source plate to destination plate using Echo. Sealed plate immediately and froze at −20° C. if it was not used on the same day. • b. If a frozen ARP was used, the plate was thawed and spun at 1000 rpm×1 min. • 2. Preparation of cells (adherent): • a. Aspirated media from cells. Washed cells with sterile 1×PBS. Aspirated PBS and added appropriate amount of Trypsin. • b. Once cells were fully trypsinized, added appropriate media to resuspend cells. Transferred cells to a 15 mL or 50 mL conical tube. • c. Counted cells on the Countess II Cell Counter. • 3. Plating of cells: • a. Prepared cells at appropriate plating density. Dispensed 12 μL of diluted cells per well of a Greiner 784080-384 well TC treated white plate using a Multidrop Combi to columns 1-23. Added 12 uL of appropriate phenol free media only to column 24. • b. Placed plates in 37° C. tissue culture incubator for appropriate treatment time (refer to “Assay” table). • 4. Prepared HTRF Lysis Buffer • a. Calculate the amount of HTRF lysis buffer master mix needed to perform the desired experiments plus any extra dead volume required for dispensing (4 μL required per well). Dilute the Blocking Reagent into 4× Lysis Buffer at a ratio of 1:25 (i.e. 0.1 mL Blocking Reagent Solution plus 2.4 mL 4× Lysis Buffer). • b. Add 4 uL Lysis buffer master mix to all wells with sample or DMSO. Centrifuge the plates for 1 minute at 1000 rpm. • c. Incubate at room temperature for 30 minutes. • 5. Prepared HTRF Antibody • a. Calculated the amount of HTRF antibody master mix needed to perform the desired experiments plus any extra dead volume required for dispensing ([…]). Eu Cryptate antibody and d2 antibody were added to detection buffer each at a ratio of 1:40 (i.e. 100 μL Eu Cryptate+100 μL d2 Cryptate+3800 μL detection buffer). • b. 4 μL of antibody master mix was added to each well including the media only column 24. • c. Centrifuged the plates for 1 minute at 1000 rpm. Placed lid on and created a “humidity chamber” by placing the plates into a ziplock bag with wet paper towels or something similar and incubated overnight at room temperature, keeping away from light.
• 6. Measured on the PHERAstar/Envision using the HTRF protocol. When plates were read, all wells were read.

Compound	IC50 [nM]
Cc1c([C@@H](Nc2nc3ccc(S(C)(=O)=O)cc3[nH]2)C(C)C)oc2ccc(F)cc12 [Compound 4, (S)-N-(1-(5-fluoro-3-methylbenzofuran-2-yl)-2-methylpropyl)-6-(methylsulfonyl)-1H-benzo[d]imidazol-2-amine]	< 200
Cc1c([C@@H](Nc2nc3ccc(C#N)cc3[nH]2)C(C)C)oc2ccc(F)cc12 [Compound 1, (S)-2-((1-(5-fluoro-3-methylbenzofuran-2-yl)-2-methylpropyl)amino)-1H-benzo[d]imidazole-6-carbonitrile]	≥ 500
Cc1c(C(Nc2nc3cc(S(C)(=O)=O)ccc3[nH]2)C(F)(F)F)oc2ccc(F)cc12 (racemic) [Compound 6b, 5-(methylsulfonyl)-N-(2,2,2-trifluoro-1-(5-fluoro-3-methylbenzofuran-2-yl)ethyl)-1H-benzo[d]imidazol-2-amine]	200 to 500
Cc1c([C@@H](Nc2nc3ccc(C(N)=O)cc3[nH]2)C(C)C)oc2ccc(F)cc12 [Compound 2, (S)-2-((1-(5-fluoro-3-methylbenzofuran-2-yl)-2-methylpropyl)amino)-1H-benzo[d]imidazole-6-carboxamide]	200 to 500
Cc1c([C@@H](Nc2nc3cc(S(C)(=O)=O)cnc3[nH]2)C(F)(F)F)oc2ccc(F)cc12 [Compound 5a, (R)-6-(methylsulfonyl)-N-(2,2,2-trifluoro-1-(5-fluoro-3-methylbenzofuran-2-yl)ethyl)-3H-imidazo[4,5-b]pyridin-2-amine]	200 to 500
Cc1c([C@H](Nc2nc3nc(N)ncc3[nH]2)C(F)(F)F)oc2ccc(F)cc12 [Compound 7b, (S)-N^8-(2,2,2-trifluoro-1-(5-fluoro-3-methylbenzofuran-2-yl)ethyl)-7H-purine-2,8-diamine]	200 to 500
Cc1c([C@@H](Nc2nc3ccc(S(N)(=O)=O)cc3[nH]2)C(C)C)oc2ccc(F)cc12 [Compound 3, (S)-2-((1-(5-fluoro-3-methylbenzofuran-2-yl)-2-methylpropyl)amino)-1H-benzo[d]imidazole-6-sulfonamide]	< 200
